In the supplement of paper PMC11451515:

Key:
Conditions in all cases: 48 h
SEM cells [1] = experiment: cell viability relative to DMSO control; higher = less cytotoxic
Outline: (§1)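 NOMO1 or SEM cells were plated at 500 cells/well and P12-Ichikawa cells at 1000 cells/well in 1536-well plates (5 μl), after each leukemia line had been adapted for at least four passages in each medium. Pin dosing delivered library compounds in DMSO at 11 threefold concentrations, 47 μM to 0.79 nM. CellTiter-Glo One luminescence was read after 48 h at 37°C. Viability is reported as a per-plate percentage of DMSO wells, with cell-free wells as background.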

NOMO1 [2] = experiment: as above
Outline: as §1

P12-Ichikawa [3] = experiment: as above
Outline: as §1

SEM cells [4] = experiment: AUC of viability dose-response curve (% viability x log10 dose units); higher = less sensitive
Outline: (§2)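 Leukemia cells adapted to each medium (500 or 1000 cells/well, 1536-well plates) were exposed to library compounds in DMSO for 48 h at 37°C at 11 threefold doses, 47 μM to 0.79 nM. Luminescence by CellTiter-Glo One was normalised per plate to DMSO and cell-free wells, then fitted with a four-parameter log-logistic curve on log10 dose. Curves above full viability were scaled and quality-control failures removed before area under the curve was integrated by trapezoidal rule.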

NOMO1 [5] = experiment: as above
Outline: as §2

P12-Ichikawa [6] = experiment: as above
Outline: as §2

Cn1cnc(N)c2ncnc1-2
cell viability [%]
Conditions | NOMO1 [2] | P12-Ichikawa [3] | SEM cells [1]
HPLM + 10% dialyzed FBS, 0.000781 µM | 111 | 110 | 80.5
HPLM + 10% dialyzed FBS, 0.00234 µM | 130 | 116 | 96.4
HPLM + 10% dialyzed FBS, 0.00702 µM | 108 | 125 | 111
HPLM + 10% dialyzed FBS, 0.0211 µM | 117 | 127 | 103
HPLM + 10% dialyzed FBS, 0.0632 µM | 139 | 115 | 109
HPLM + 10% dialyzed FBS, 0.19 µM | 92.4 | 116 | 88.9
HPLM + 10% dialyzed FBS, 0.569 µM | 139 | 124 | 112
HPLM + 10% dialyzed FBS, 1.71 µM | 80.3 | 110 | 80.3
HPLM + 10% dialyzed FBS, 5.12 µM | 63.5 | 88.5 | 32
HPLM + 10% dialyzed FBS, 15.4 µM | 11.5 | 5.12 | 5
HPLM + 10% dialyzed FBS, 46.1 µM | 6.59 | 4.04 | 4.54
RPMI 5 mM glucose + 10% FBS, 0.000781 µM | 99.7 | 97.1 | 90.9
RPMI 5 mM glucose + 10% FBS, 0.00234 µM | 113 | 119 | 99
RPMI 5 mM glucose + 10% FBS, 0.00702 µM | 117 | 114 | 92.9
RPMI 5 mM glucose + 10% FBS, 0.0211 µM | 119 | 117 | 87.1
RPMI 5 mM glucose + 10% FBS, 0.0632 µM | 131 | 121 | 87.8
RPMI 5 mM glucose + 10% FBS, 0.19 µM | 111 | 114 | 99.5
RPMI 5 mM glucose + 10% FBS, 0.569 µM | 118 | 126 | 87.2
RPMI 5 mM glucose + 10% FBS, 1.71 µM | 117 | 113 | 63.6
RPMI 5 mM glucose + 10% FBS, 5.12 µM | 94.7 | 83.6 | 14.7
RPMI 5 mM glucose + 10% FBS, 15.4 µM | 18.5 | 6.1 | 4.31
RPMI 5 mM glucose + 10% FBS, 46.1 µM | 9.02 | 3.21 | 3.65
RPMI 5 mM glucose + 10% dialyzed FBS, 0.000781 µM | 102 | 97.9 | 108
RPMI 5 mM glucose + 10% dialyzed FBS, 0.00234 µM | 124 | 109 | 109
RPMI 5 mM glucose + 10% dialyzed FBS, 0.00702 µM | 118 | 117 | 115
RPMI 5 mM glucose + 10% dialyzed FBS, 0.0211 µM | 130 | 128 | 84.9
RPMI 5 mM glucose + 10% dialyzed FBS, 0.0632 µM | 135 | 123 | 112
RPMI 5 mM glucose + 10% dialyzed FBS, 0.19 µM | 113 | 130 | 98.6
RPMI 5 mM glucose + 10% dialyzed FBS, 0.569 µM | 120 | 124 | 118
RPMI 5 mM glucose + 10% dialyzed FBS, 1.71 µM | 118 | 113 | 82.6
RPMI 5 mM glucose + 10% dialyzed FBS, 5.12 µM | 79.7 | 91.9 | 24.8
RPMI 5 mM glucose + 10% dialyzed FBS, 15.4 µM | 19.3 | 7.88 | 5.27
RPMI 5 mM glucose + 10% dialyzed FBS, 46.1 µM | 11.9 | 3.87 | 4.09

AUC of viability dose-response curve
Conditions | NOMO1 [5] | P12-Ichikawa [6] | SEM cells [4]
HPLM + 10% dialyzed FBS | 375 | 396 | 367
RPMI 5 mM glucose + 10% FBS | 406 | 395 | 326
RPMI 5 mM glucose + 10% dialyzed FBS | 398 | 399 | 362

COC(=O)CCC1=C(C)C2=CC3=NC(=CC4=C(C)C(=C([NH]4)C=C\5N=C(C=C1[NH]2)\C(=C5C)CCC(O)=O)C=C)\C6=C\C=C(/[C@@H](C(=O)OC)[C@@]36C)C(=O)OC
cell viability [%]
Conditions | NOMO1 [2] | P12-Ichikawa [3] | SEM cells [1]
HPLM + 10% dialyzed FBS, 0.000781 µM | 95.4 | 98.8 | 88.5
HPLM + 10% dialyzed FBS, 0.00234 µM | 94.3 | 103 | 83.3
HPLM + 10% dialyzed FBS, 0.00702 µM | 91.5 | 101 | 89.7
HPLM + 10% dialyzed FBS, 0.0211 µM | 91.9 | 111 | 85.4
HPLM + 10% dialyzed FBS, 0.0632 µM | 92.6 | 102 | 94.2
HPLM + 10% dialyzed FBS, 0.19 µM | 97 | 105 | 94.4
HPLM + 10% dialyzed FBS, 0.569 µM | 103 | 109 | 98
HPLM + 10% dialyzed FBS, 1.71 µM | 80.3 | 106 | 95.7
HPLM + 10% dialyzed FBS, 5.12 µM | 78.6 | 101 | 91.7
HPLM + 10% dialyzed FBS, 15.4 µM | 38.9 | 98.7 | 82.7
HPLM + 10% dialyzed FBS, 46.1 µM | 14.1 | 93.3 | 77.4
RPMI 5 mM glucose + 10% FBS, 0.000781 µM | 86.6 | 93.3 | 89.4
RPMI 5 mM glucose + 10% FBS, 0.00234 µM | 89.3 | 101 | 92
RPMI 5 mM glucose + 10% FBS, 0.00702 µM | 91.9 | 104 | 91.8
RPMI 5 mM glucose + 10% FBS, 0.0211 µM | 97.5 | 100 | 94.9
RPMI 5 mM glucose + 10% FBS, 0.0632 µM | 116 | 97.1 | 95.2
RPMI 5 mM glucose + 10% FBS, 0.19 µM | 109 | 100 | 98.1
RPMI 5 mM glucose + 10% FBS, 0.569 µM | 101 | 103 | 87.7
RPMI 5 mM glucose + 10% FBS, 1.71 µM | 102 | 96.8 | 98.9
RPMI 5 mM glucose + 10% FBS, 5.12 µM | 101 | 88.9 | 95.4
RPMI 5 mM glucose + 10% FBS, 15.4 µM | 55.2 | 77.1 | 89.7
RPMI 5 mM glucose + 10% FBS, 46.1 µM | 14.5 | 60.9 | 75.4
RPMI 5 mM glucose + 10% dialyzed FBS, 0.000781 µM | 85.4 | 88 | 86.6
RPMI 5 mM glucose + 10% dialyzed FBS, 0.00234 µM | 99 | 94.7 | 90.7
RPMI 5 mM glucose + 10% dialyzed FBS, 0.00702 µM | 87 | 97.8 | 101
RPMI 5 mM glucose + 10% dialyzed FBS, 0.0211 µM | 98.4 | 95.6 | 108
RPMI 5 mM glucose + 10% dialyzed FBS, 0.0632 µM | 88 | 103 | 105
RPMI 5 mM glucose + 10% dialyzed FBS, 0.19 µM | 90.8 | 96.9 | 122
RPMI 5 mM glucose + 10% dialyzed FBS, 0.569 µM | 93.7 | 105 | 104
RPMI 5 mM glucose + 10% dialyzed FBS, 1.71 µM | 86.6 | 104 | 108
RPMI 5 mM glucose + 10% dialyzed FBS, 5.12 µM | 94.9 | 94.6 | 105
RPMI 5 mM glucose + 10% dialyzed FBS, 15.4 µM | 45.7 | 84.9 | 91.3
RPMI 5 mM glucose + 10% dialyzed FBS, 46.1 µM | 18.4 | 82.9 | 80.4

AUC of viability dose-response curve
Conditions | NOMO1 [5] | P12-Ichikawa [6] | SEM cells [4]
HPLM + 10% dialyzed FBS | 393 | 469 | 428
RPMI 5 mM glucose + 10% FBS | 433 | 450 | 441
RPMI 5 mM glucose + 10% dialyzed FBS | 397 | 457 | 473

Cc1nc2ccc(CN(C)c3ccc(C(=O)N[C@@H](CCC(=O)O)C(=O)O)s3)cc2c(=O)[nH]1
cell viability [%]
Conditions | NOMO1 [2] | P12-Ichikawa [3] | SEM cells [1]
HPLM + 10% dialyzed FBS, 0.000781 µM | 110 | 119 | 90.3
HPLM + 10% dialyzed FBS, 0.00234 µM | 120 | 119 | 93.1
HPLM + 10% dialyzed FBS, 0.00702 µM | 101 | 118 | 101
HPLM + 10% dialyzed FBS, 0.0211 µM | 111 | 118 | 103
HPLM + 10% dialyzed FBS, 0.0632 µM | 99 | 120 | 64.1
HPLM + 10% dialyzed FBS, 0.19 µM | 53.3 | 56.7 | 45
HPLM + 10% dialyzed FBS, 0.569 µM | 46 | 42.2 | 41.4
HPLM + 10% dialyzed FBS, 1.71 µM | 44.8 | 26.5 | 42.7
HPLM + 10% dialyzed FBS, 5.12 µM | 41.6 | 24.9 | 35.4
HPLM + 10% dialyzed FBS, 15.4 µM | 41.6 | 25.9 | 39.3
HPLM + 10% dialyzed FBS, 46.1 µM | 38.7 | 21.4 | 38.3
RPMI 5 mM glucose + 10% FBS, 0.000781 µM | 120 | 112 | 96.5
RPMI 5 mM glucose + 10% FBS, 0.00234 µM | 113 | 117 | 115
RPMI 5 mM glucose + 10% FBS, 0.00702 µM | 105 | 126 | 103
RPMI 5 mM glucose + 10% FBS, 0.0211 µM | 112 | 115 | 104
RPMI 5 mM glucose + 10% FBS, 0.0632 µM | 100 | 113 | 118
RPMI 5 mM glucose + 10% FBS, 0.19 µM | 114 | 97 | 99
RPMI 5 mM glucose + 10% FBS, 0.569 µM | 94.5 | 66.2 | 93
RPMI 5 mM glucose + 10% FBS, 1.71 µM | 72.2 | 42.6 | 85.6
RPMI 5 mM glucose + 10% FBS, 5.12 µM | 71.8 | 38.2 | 83.3
RPMI 5 mM glucose + 10% FBS, 15.4 µM | 75.7 | 35.1 | 82.1
RPMI 5 mM glucose + 10% FBS, 46.1 µM | 73.1 | 31.7 | 82.1
RPMI 5 mM glucose + 10% dialyzed FBS, 0.000781 µM | 116 | 106 | 98.7
RPMI 5 mM glucose + 10% dialyzed FBS, 0.00234 µM | 109 | 116 | 113
RPMI 5 mM glucose + 10% dialyzed FBS, 0.00702 µM | 104 | 105 | 113
RPMI 5 mM glucose + 10% dialyzed FBS, 0.0211 µM | 120 | 119 | 118
RPMI 5 mM glucose + 10% dialyzed FBS, 0.0632 µM | 108 | 108 | 106
RPMI 5 mM glucose + 10% dialyzed FBS, 0.19 µM | 70.9 | 88.9 | 45.9
RPMI 5 mM glucose + 10% dialyzed FBS, 0.569 µM | 37.6 | 60.8 | 33.2
RPMI 5 mM glucose + 10% dialyzed FBS, 1.71 µM | 25.6 | 32.4 | 35.3
RPMI 5 mM glucose + 10% dialyzed FBS, 5.12 µM | 33 | 28.5 | 29.6
RPMI 5 mM glucose + 10% dialyzed FBS, 15.4 µM | 33.1 | 27.8 | 32.4
RPMI 5 mM glucose + 10% dialyzed FBS, 46.1 µM | 32.1 | 26.9 | 30.5

AUC of viability dose-response curve
Conditions | NOMO1 [5] | P12-Ichikawa [6] | SEM cells [4]
HPLM + 10% dialyzed FBS | 315 | 287 | 298
RPMI 5 mM glucose + 10% FBS | 413 | 331 | 432
RPMI 5 mM glucose + 10% dialyzed FBS | 305 | 321 | 295
